The text below walks through data of US20060089335A1, “Compositions and methods for enhancing cognitive function and synaptic plasticity” (priority 2003, published 2006).

For assay [1], the system named is cultured hippocampal neurons. Briefly: control recordings of membrane potential, synaptic inputs and firing. The format is cell-based, rat. How it is done:
Electrophysiology. Dual whole cell perforated patch clamp recordings were made on two interconnected cultured hippocampal pyramidal neurons. Perforated patch pipettes were front-filled with a solution containing (in mM): CsOH, 127; D-gluconic acid, 127; CsCl, 4; HEPES, 10; NaCl, 8; EGTA, 0.4; pH was adjusted to 7.25 with CsOH, and then back-filled with the same solution containing […] amphotericin B (Sigma, St. Louis, Mo.). Extracellular solution contained (in mM): NaCl, 145; KCl, 3; glucose, 15; HEPES, 10; MgCl2, 0.8-1.2; CaCl2, 1.2; 0.005 glycine (Sigma), 0.05 picrotoxin (Sigma); pH adjusted to 7.4 with NaOH. MgCl2 concentration was matched to its concentration in culture medium. In experiments where effects of drugs on neuronal activity were quantified (FIG. 4D), recordings were done in culture medium (with HEPES replacing bicarbonate/CO2 to maintain pH). All experiments were performed at room temperature. For assaying synaptic connectivity, each neuron was stimulated by 1 ms step depolarization from −70 to +30 mV in voltage-clamp mode. Only neurons with monosynaptic connections were used. […] Recordings with access resistance>20 MΩ or that varied substantially were rejected from analysis.

Another assay relates to NR1. Briefly: quantitative Western blotting of hippocampal homogenate. The settings on record: rat, in vivo. As for the experimental part: (§1) Quantitative Western blotting. Samples of hippocampal homogenate (10 ug/sample) were resolved on polyacrylamide gels, transferred to PVDF, and probed with anti-NR1 (Chemicon), NR2A (Upstate) or NR2B (Santa Cruz Biotech), GluR1 (Chemicon), Synapsin1 (American Qualex), or PSD-95 (Upstate) antibody followed by the appropriate secondary antibody coupled to horseradish peroxidase (1:10,000, Santa Cruz Biotech) in Tris-buffered saline (pH 7.3) containing 5% dry milk and 0.1% Tween (BioRad). Visualization of immunoreactive bands was achieved by enhanced chemiluminescence (Perkin Elmer Biosciences) and captured on autoradiography film (Kodak Scientific). Standard curves, in which the amount of protein was varied systematically, were constructed to establish that we operated within the linear range of the chemiluminescence detection method. In addition, each immunoblot was exposed to autoradiography film multiple times (average 7; minimum 5) for varying duration to make sure we operated in the linear range of the film for each experiment. Digital images, produced by scanning films on a Epson 3200 Scanner (Epson) with Epson Scan Software (Epson), were quantified using GelPro Analyzer 3.1 software. The integrated optical density (IOD) of each immunoreactive band from hippocampal samples relative to baseline measured immediately above and below the band in the same lane, and normalized by the actin or neurofilament band also in the same lane. Group data (eight animals per group) are represented as the mean+/−SEM of the IOD of samples.

The subject of a further assay is synapsin1. The assay is described as above. The settings on record: rat, in vivo. As for the experimental part:
as §1

The test system of another assay is NR2A. The description is as above. Conditions: rat, in vivo. As for the experimental part: as §1

Each structure is given as a SMILES string.

On to `[Mg+2]` [Mg^++], for which, in assay [1], the “EPSC1.2/EPSC0.8, overall synaptic inputs during network activity” value was found to be 1.03±0.1; the “EPSP1.2/EPSP0.8, spontaneous miniature EPSPAMPAs” value stood at 0.9±0.1; the “change in average firing rates of neurons within cultured neural networks” value was “none of these treatments induces a significant change”. In addition, in the assay on NR1, the “change of NR1” value is “no significant changes”. Further, the “change of synapsin1” value in the assay on synapsin1 is on record as “no significant changes”. For the same compound, the “change of NR2A” value with NR2A is on record as “no significant changes”.
